Experimental data from patent US20100173888A1 (Pfizer Inc, priority 2008, published 2010).
Counter-ions that a name gives are not always drawn.

Biological target: human recombinant H-PGDS (Homo sapiens, UniProt O60760)
Assay: Fluorescence intensity h-PGDS TBA enzyme assay (PGH2 depletion, MDA/TBA fluorescence)
Type: biochemical
Conditions: 1:175,000 human recombinant H-PGDS, 42 second reaction, 3-fold serial dilutions, highest concentration typically 1 μM
Procedure, shortened: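 Recombinant human H-PGDS preincubated with inhibitor 10 min at room temperature in pH 8.0 Tris, MgCl2, IgG, 2.5 mM glutathione, 0.5% DMSO. Reaction with 5.0 μM PGH2 stopped at 42 s with FeCl2/citric acid; MDA–TBA fluorescence (ex 530/em 565 nm) read after 70° C. IC50 by 4-parameter fit, 11 concentrations.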

Chain of human recombinant H-PGDS (O60760 whole entry): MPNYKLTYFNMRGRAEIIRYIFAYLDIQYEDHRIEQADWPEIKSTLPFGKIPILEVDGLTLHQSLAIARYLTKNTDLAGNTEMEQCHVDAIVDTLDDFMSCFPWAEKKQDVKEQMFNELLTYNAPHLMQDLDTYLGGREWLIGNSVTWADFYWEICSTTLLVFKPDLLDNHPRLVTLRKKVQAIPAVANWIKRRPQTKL

Compound | IC50 [nM]
CS(=O)(=O)NC[C@H]1CC[C@H](NC(=O)c2ccc(-c3cccc(F)c3)nc2)CC1 [Example 150, 6-(3-Fluorophenyl)-N-[trans 4(methanesulfonylaminomethyl)cyclohexyl]nicotinamide] | 8.9
CC(C)(O)C[C@H]1CC[C@H](NC(=O)c2ccc(-c3cccc(F)c3)nc2)CC1 [Example 152, 6-(3-Fluorophenyl)-N-[4-(trans 2-hydroxy-2-methylpropyl)cyclohexyl]nicotinamide] | 2.2
O=C(NC1CCC(O)(CN2CCCCC2)CC1)c1ccc(-c2cccc(F)c2)nc1 (stereo not shown) [Example 153, 6-(3-Fluorophenyl)-N-(4-hydroxy-piperidin-1-ylmethylcyclohexyl)nicotinamide] | 13.2
NCCC(O)C1CCC(NC(=O)c2ccc(-c3cccc(F)c3)nc2)CC1 (stereo not shown) [Example 154, N-[4-(3-Amino-1-hydroxypropyl)cyclohexyl]6-(3-fluorophenyl)nicotinamide hydrochloride] | 40.3
N[C@H]1CC[C@@H](NC(=O)c2ccc(-c3cccc(F)c3)nc2)CC1 [Example 155, N-(cis-4-Aminocyclohexyl)-6-(3-fluorophenyl)nicotinamide] | 97.8
O=C(N[C@H]1CC[C@@H](C(=O)N2CCN(CCO)CC2)C1)c1ccc(-c2cccc(F)c2)nc1 [Example 156, 6-(3-fluorophenyl)-N-[(1S,3R)-3-{[4-(2-hydroxyethyl)piperazin-1-yl]carbonyl}cyclopentyl]nicotinamide] | 11.5
CCN(C)C(=O)[C@@H]1CC[C@H](NC(=O)c2ccc(-c3cccc(F)c3)nc2)C1 [Example 157, N-{(1S,3R)-3-[ethyl(methyl)carbamoyl]cyclopentyl}-6-(3-fluorophenyl)nicotinamide] | 5.8
O=C(N[C@H]1CC[C@@H](C(=O)N2CC[C@H](F)C2)C1)c1ccc(-c2cccc(F)c2)nc1 [Example 159, 6-(3-fluorophenyl)-N-[(1S,3R)-3-{[(3S)-3-fluoropyrrolidin-1-yl]carbonyl}cyclopentyl]nicotinamide] | 4.9
O=C(N[C@H]1CC[C@@H](C(=O)NC2CC2)C1)c1ccc(-c2cccc(F)c2)nc1 [Example 160, N-[(1S,3R)-3-(cyclopropylcarbamoyl)cyclopentyl]-6-(3-fluorophenyl)nicotinamide] | 11.2
O=C(N[C@H]1CC[C@@H](C(=O)N2CC[C@@H](F)C2)C1)c1ccc(-c2cccc(F)c2)nc1 [Example 161, 6-(3-fluorophenyl)-N-[(1S,3R)-3-{[(3R)-3-fluoropyrrolidin-1-yl]carbonyl}cyclopentyl]nicotinamide] | 4.1

More lines, now with the values ahead:

IC50 [nM] | Compound
22.7 | CC(C)(O)[C@@H]1CC[C@H](NC(=O)c2ccc(-c3cccc(F)c3)nc2)C1 [Example 162, 6-(3-fluorophenyl)-N-[(1S,3R)-3-(1-hydroxy-1-methylethyl)cyclopentyl]nicotinamide]
6.1 | CN(C)C(=O)[C@@H]1CC[C@H](NC(=O)c2ccc(-c3cccc(F)c3)nc2)C1 [Example 163, N-[(1S,3R)-3-(Dimethylcarbamoyl)cyclopentyl]-6-(3-fluorophenyl)nicotinamide]
16.1 | C[C@H](CO)NC(=O)[C@@H]1CC[C@H](NC(=O)c2ccc(-c3cccc(F)c3)nc2)C1 [Example 164, 6-(3-Fluorophenyl)-N-{(1S,3R)-3-[(2-hydroxy-1-methylethyl)carbamoyl]cyclopentyl}nicotinamide]
16.9 | CN(C)C(=O)[C@H]1CC[C@@H](NC(=O)c2ccc(-c3cccc(F)c3)nc2)C1 [Example 165, N-[(1R,3S)-3-Dimethylcarbamoyl-cyclopentyl]-6-(3-fluorophenyl)nicotinamide]
35.5 | CC(C)(O)[C@H]1CC[C@@H](NC(=O)c2ccc(-c3cccc(F)c3)nc2)C1 [Example 166, 6-(3-Fluorophenyl)-N-[(1R,3S)-3-(1-hydroxy-1-methylethyl)cyclopentyl]nicotinamide]
28.5 | CN(C)CCNC(=O)[C@@H]1CC[C@H](NC(=O)c2ccc(-c3cccc(F)c3)nc2)C1 [Example 167, N-[(1S,3R)-3-{[2-(Dimethylamino)ethyl]carbamoyl}cyclopentyl]-6-(3-fluorophenyl)nicotinamide]
